What was measured:
[1] = tested on: mice pain response induced by hot plate; test: Mice pain response induced by hot plate; type: in vivo, ICR mice; conditions: hot plate 55°C
Description: Female ICR mice (20±2) g were placed on an intelligent hot plate at 55±0.5° C., and latency (s) that the plantar of mice touched the hot plate until the occurrence of a hind paws licking response served as a pain threshold indicator; the mice (response latency <5 s or >30 s) or jumping mice were eliminated.
Grouping and administration were the same as those in Example 40.
The mice were continuously administered intragastrically for 7 consecutive days; the pain threshold of each group of mice was respectively determined once at 30, 60, 90 and 120 min after the final administration; the pain threshold greater than 60 s was calculated by 60 s.

[2] = tested on: ulcerative colitis mice; test: Mice ulcerative colitis (DSS); type: in vivo, BALB/c mice; conditions: DSS mice; for Colon length: four periods; for IL-1 content: serum, ELISA
Description: Healthy male SPF-level BALB/c mice (8-week old and body mass: (20±2) g).
Modeling: the mice were randomly divided into […] at the end of the quarantine, 10 pieces for each group. The mice in the normal group drank normal water freely, and the rest groups of mice drank 1.0%-1.5% DSS solution freely for modeling, 7 d later after modeling, the mice in the modeling group drank normal water freely for 7 d, and 14 d served as a modeling period for four continuous periods, and the mice in the modeling group were administered at the same time.
End point of the experiment: experimental administration was performed for four periods, and dissection was performed on the 3rd and 4th day of the recovery period of the 4th period.
Test indicators: the mice were weighed twice a week after the beginning of the administration; diarrhea and hematochezia of the mice were observed, and times of hematochezia were recorded.
At the end of the experiment, the mice were dissected and weighed, and narcotized to take blood, then serum was preserved at -80° C. Spleen was taken and weighed to calculate the spleen index. The content of IL-1β in serum was detected via ELISA. Colorectum was cut and taken to measure the length of colorectum, then immobilized by formaldehyde and dyed by HE to detect the pathological change.

[3] = tested on: reserpine-induced mice migraine; test: Reserpine-induced mice migraine; type: in vivo, ICR mice; conditions: for Blood coagulation time: reserpine 0.2 mg/kg sc mice, 1 h after final administration; for brain tissue 5-HT / Times of tail suspension (struggling times within 2 min): reserpine mice; for Times of tail suspension (struggling times within 2 min): 9th day
Description: The mice in the blank control group and model group were administered intragastrically via a solvent from the 5th day after modeling, and the rest groups of mice were respectively administered corresponding medicaments and doses for intragastric administration for 10 consecutive days; 1 h later after the final administration, the mice were weighed; blood was taken at inner canthus to detect blood coagulation time; whole blood was taken, and cerebrum was taken on an ice and preserved at -20° C. for the subsequent experiment.
Behavioral test: tail suspension activity was performed; the position 1 cm away from the tail of the mice was glued by an adhesive tape on the 9th day of the test, and the adhesive tape was penetrated by a steel needle, and hung in a dark box such that the mice were hung upside down; then the mice struggling times (total number of overturning from hanging) within 2 min were observed.
The mice were weighed 1 h later after the final administration; blood of inner canthus was taken via a capillary to detect the blood coagulation time.
Blood was taken to detect the content of 5-HT in serum via high-performance liquid chromatography. Cerebrum was taken on an ice and precooled and cleaned slightly with 0.5% sodium carboxymethylcellulose, and then sucked dry with a filter paper, and placed into a cryogenic tube, and preserved at -20° C. for further use, then the content of 5-HT in brain tissues was detected by high performance liquid chromatography.
5-HT test method: a sample was precipitated with 10% perchloric acid solution according to 1:1, and then centrifuged to take supernatant for test. Chromatographic conditions: the chromatographic column is a SHIMADZU VP-ODS C18 column (250*4.6 mm, 5 um), the mobile phase is a methanol-0.01 mol/L potassium acetate buffer solution (10:90, V/V, PH is adjusted to 4.00 with 0.2 mol/L citric acid) for gradient elution; the column temperature is 25° C., flow rate is 1.00 ml/min and test wavelength is 275 nm.

[4] = tested on: mice writhing caused by acetic acid; test: Mice writhing caused by acetic acid; conditions: for Writhing times: 1 h before 0.7% acetic acid ip, within 20 min; for Latent time: time to first writhing

O=C(Nc1ccc(Cl)cc1)C1CCN(C(=O)c2ccc(O)cc2)CC1 [MAGLZ-II-10]
Pain threshold ([1]; high dose 30 mg/kg ig 7 d, 30 min after final administration): 17.73 ± 6.20 s | Pain threshold ([1]; high dose 30 mg/kg ig 7 d, 60 min): 19.77 ± 6.73 s | Pain threshold ([1]; high dose 30 mg/kg ig 7 d, 90 min): 25.25 ± 7.01 s | Pain threshold ([1]; high dose 30 mg/kg ig 7 d, 120 min): 24.90 ± 5.73 s | Pain threshold ([1]; low dose 7.5 mg/kg ig 7 d, 30 min after final administration): 16.37 ± 6.00 s | Pain threshold ([1]; low dose 7.5 mg/kg ig 7 d, 60 min): 17.93 ± 5.75 s | Pain threshold ([1]; low dose 7.5 mg/kg ig 7 d, 90 min): 19.24 ± 4.72 s | Pain threshold ([1]; low dose 7.5 mg/kg ig 7 d, 120 min): 19.14 ± 4.63 s | Pain threshold ([1]; middle dose 15 mg/kg ig 7 d, 30 min after final administration): 16.67 ± 5.97 s | Pain threshold ([1]; middle dose 15 mg/kg ig 7 d, 60 min): 18.79 ± 5.95 s | Pain threshold ([1]; middle dose 15 mg/kg ig 7 d, 90 min): 22.43 ± 5.31 s | Pain threshold ([1]; middle dose 15 mg/kg ig 7 d, 120 min): 20.60 ± 4.64 s | Total times of hematochezia within the four periods ([2]; high dose 30 mg/kg ig): 35.15±4.52 | Colon length ([2]; high dose 30 mg/kg ig): 6.35±0.61 cm | IL-1 content ([2]; high dose 30 mg/kg ig): 47.25 ± 6.37 pg/mL | Total times of hematochezia within the four periods ([2]; low dose 7.5 mg/kg ig): 38.40±5.02 | Colon length ([2]; low dose 7.5 mg/kg ig): 5.92±0.66 cm | IL-1 content ([2]; low dose 7.5 mg/kg ig): 51.81 ± 7.86 pg/mL | Total times of hematochezia within the four periods ([2]; middle dose 15 mg/kg ig): 38.20±7.83 | Colon length ([2]; middle dose 15 mg/kg ig): 5.72±0.60 cm | IL-1 content ([2]; middle dose 15 mg/kg ig): 50.83 ± 7.79 pg/mL | Blood coagulation time ([3]; high dose 30 mg/kg ig 10 d): 148.00±30.23 S | Blood coagulation time ([3]; low dose 7.5 mg/kg ig 10 d): 113.25±23.31 S | Blood coagulation time ([3]; middle dose 15 mg/kg ig 10 d): 125.25±19.31 S | brain tissue 5-HT ([3]; high dose 30 mg/kg ig 10 d): 0.90 ± 0.21 nmol/g | Times of tail suspension (struggling times within 2 min) ([3]; high dose 30 mg/kg ig): 11.63±1.85 | brain tissue 5-HT ([3]; low dose 7.5 mg/kg ig 10 d): 0.85 ± 0.20 nmol/g | Times of tail suspension (struggling times within 2 min) ([3]; low dose 7.5 mg/kg ig): 9.25±2.66 | brain tissue 5-HT ([3]; middle dose 15 mg/kg ig 10 d): 1.05 ± 0.14 nmol/g | Times of tail suspension (struggling times within 2 min) ([3]; middle dose 15 mg/kg ig): 10.63±1.19 | Writhing times ([4]; high dose 30 mg/kg ig): 24.8±11.1^∗ | Latent time ([4]; high dose 30 mg/kg ig): 306.4±90.2^∗ s | Writhing times ([4]; low dose 7.5 mg/kg ig): 34.0±9.1 | Latent time ([4]; low dose 7.5 mg/kg ig): 235.4 ± 59.6 s | Writhing times ([4]; middle dose 15 mg/kg ig): 32.8±11.6 | Latent time ([4]; middle dose 15 mg/kg ig): 246.2 ± 69.5 s

— patent US20230090255A1, “MAGL INHIBITOR, PREPARATION METHOD THEREFOR AND USE THEREOF” (LUNAN PHARMACEUTICAL GROUP CORPORATION, priority 2019, published 2023)
